Experimental data published in patent US6300359A, “(E)-3-[1-n-Butyl-5-[2-(2-carboxyphenyl)methoxy-4-chlorophenyl]-1H-pyrazol-4 -yl]-2-[(5-methoxy-2,3-dihydrobenzofuran-6-yl)methyl]-prop-2-enoic acid monoargininyl salt” (SmithKline Beecham Corporation, priority 2000, dated 2001).
Entries after “also recorded” stand apart in the source; their conditions may differ. Counter-ions that a name gives are not always drawn. Like-named read-outs stand apart in the source and are kept apart here. One block for each compound: values may come before it.

Experiments:
[1] = Bioavailability study in dogs (oral capsule formulations; intraduodenal non-aqueous solution); type: in vivo, male beagle dogs; conditions: for bioavailability: plasma
[2] = Hygroscopicity study (moisture uptake, dynamic vapor sorption analyzer); type: physicochemical; conditions: for % Moisture Uptake: percentage weight gain
From the text: ^a Measured on a dynamic vapor sorption analyzer as percentage weight

[3] = Enterohepatic extraction ratio and theoretical maximum oral bioavailability; type: in vivo; conditions: dogs
[4] = Aqueous solubility under acidic conditions; type: physicochemical; conditions: water, pH<5.34
Protocol: The aqueous solubility of the diacid of the compound of Formula (I) is very limited under acidic conditions. The solubility is less than 0.1 ug/mL at pH<5.34.

[5] = Accelerated stability studies; type: physicochemical; conditions: stored at 50° C.

bioavailability ([1]; dog, dog, non-aqueous solution (99% PEG 400, 1% DMSO) dosed intraduodenally, only 2 animals, read-out: Mean % Oral Bioavailability ± SD): 14.5%
bioavailability ([1]; dog, po, dog, oral capsule (with microcrystalline cellulose as diluent), read-out: Mean % Oral Bioavailability ± SD): 6.2%
% Moisture Uptake ([2]; 0% relative humidity): 0%
% Moisture Uptake ([2]; 10% relative humidity): 1.849%
% Moisture Uptake ([2]; 20% relative humidity): 2.838%
% Moisture Uptake ([2]; 30% relative humidity): 3.821%
% Moisture Uptake ([2]; 40% relative humidity): 5.013%
% Moisture Uptake ([2]; 50% relative humidity): 6.773%
% Moisture Uptake ([2]; 60% relative humidity): 10.188%
% Moisture Uptake ([2]; 70% relative humidity): 15.919%
% Moisture Uptake ([2]; 80% relative humidity): 22.472%
% Moisture Uptake ([2]; 90% relative humidity): 33.671%
SMILES: CCCCn1ncc(/C=C(\Cc2cc3c(cc2OC)CCO3)C(=O)O)c1-c1ccc(Cl)cc1OCc1ccccc1C(=O)O [Disodium Salt]

bioavailability ([1]; dog, po, 10 mg/kg, dogs, oral dosing of a simple capsule formulation, read-out: oral bioavailability): 3.9%
bioavailability ([1]; dog, po, dog, oral capsule with 0.5% Tween 80 & 2 MEq NMG (also some microcrystalline cellulose, lactose, starch), read-out: Mean % Oral Bioavailability ± SD): 6.3 ± 5.3%
bioavailability ([1]; dog, po, dog, oral capsule with 0.5% Tween 80 (also some microcrystalline cellulose, lactose, starch), read-out: Mean % Oral Bioavailability ± SD): 2.3 ± 3.7%
hepatic extraction ratio ([3]; dog, in vivo): 0.82
theoretical maximum value of oral bioavailability ([3]; from enterohepatic extraction ratio): 18%
solubility [4]: < 0.1 µg/mL
% Moisture Uptake ([2]; 0% relative humidity): 0%
% Moisture Uptake ([2]; 10% relative humidity): 0.077%
% Moisture Uptake ([2]; 20% relative humidity): 0.088%
% Moisture Uptake ([2]; 30% relative humidity): 0.126%
% Moisture Uptake ([2]; 40% relative humidity): 0.184%
% Moisture Uptake ([2]; 50% relative humidity): 0.245%
% Moisture Uptake ([2]; 60% relative humidity): 0.316%
% Moisture Uptake ([2]; 70% relative humidity): 0.395%
% Moisture Uptake ([2]; 80% relative humidity): 0.509%
% Moisture Uptake ([2]; 90% relative humidity): 0.518%
SMILES: CCCCn1ncc(/C=C(\Cc2cc3c(cc2OC)CCO3)C(=O)O)c1-c1ccc(Cl)cc1OCc1ccccc1C(=O)O [Diacid, (E)-3-[1-n-Butyl-5-[2-(2-carboxyphenyl)methoxy-4-chlorophenyl]-1H-pyrazol-4-yl]-2-[(5-methoxy-2,3-dihydrobenzofuran-6-yl)methyl]-prop-2-enoic acid]

Mean % Oral Bioavailability ± SD ([1]; dog, oral capsule (with microcrystalline cellulose as diluent), 10 mg/kg): 13.8 ± 7.6%
% Moisture Uptake ([2]; 0% relative humidity): 0%
% Moisture Uptake ([2]; 10% relative humidity, listed as Monoarginine): 0.261%
% Moisture Uptake ([2]; 20% relative humidity, listed as Monoarginine): 0.382%
% Moisture Uptake ([2]; 30% relative humidity, listed as Monoarginine): 0.526%
% Moisture Uptake ([2]; 40% relative humidity, listed as Monoarginine): 0.689%
% Moisture Uptake ([2]; 50% relative humidity, listed as Monoarginine): 0.827%
% Moisture Uptake ([2]; 60% relative humidity, listed as Monoarginine): 0.982%
% Moisture Uptake ([2]; 70% relative humidity, listed as Monoarginine): 1.092%
% Moisture Uptake ([2]; 80% relative humidity, listed as Monoarginine): 1.434%
% Moisture Uptake ([2]; 90% relative humidity, listed as Monoarginine): 2.334%
moisture absorbed ([2]; relative humidity range of 0 to 90%): 2.3%
SMILES: CCCCn1ncc(/C=C(\Cc2cc3c(cc2OC)CCO3)C(=O)O)c1-c1ccc(Cl)cc1OCc1ccccc1C(=O)O [Monoargininyl Salt, (E)-3-[1-n-Butyl-5-[2-(2-carboxyphenyl)methoxy-4-chlorophenyl]1H-pyrazol-4-yl]-2-[(5-methoxy-2,3-dihydrobenzofuran-6-yl)methyl]-prop-2-enoic Acid, Monoargininyl Salt]
bioavailability compared with other forms (in words) ([1]; dogs, vs disodium salt or dissolution-enhancing formulations of the diacid): increased bioavailability as compared to the disodium salt or dissolution-enhancing formulations of the diacid
hygroscopicity (in words) ([2]; compared with diacid and amorphous disodium salt, listed as monoarginine salt): minimally hygroscopic; also recorded: slightly more hygroscopic than the diacid form; also recorded: considerably less hygroscopic than the amorphous disodium salt form
chemical stability [5]: chemically stable for at least three weeks
